Results published in patent publication US20250179031A1, “PROTEASOME ENHANCERS AND USES THEREOF” (Board of Trustees of Michigan State University, priority 2022, published 2025).
One block for each molecule: values may come before it.

Key:
Format in all cases: biochemical
human 20S proteasome = test system: T1, human 20S proteasome; test: Fluorogenic peptide degradation 20S proteasome activity assay, combination of CT-L, T-L and Casp-L substrates; settings: for Fold increase over vehicle (30 μM), enhancement of 20S activity: 30 μM compound, mixture of the three substrates, 15 min pre-treatment at 37° C., 1 h read; for concentration at which 20S activity was doubled in the combination (in words) / AC200 (concentration at which 20S activity was doubled), Combo / Max Fold, Combo: combination of the three substrates; for AC200 (concentration at which 20S activity was doubled), Combo / Max Fold, Combo: 1.25-40 μM titration
T1 construct: purchased Boston Biochem, Inc. (Cambridge, MA)
Experimental: (§1) Activity assays were carried out in a 100 μL reaction volume. Different concentrations (40-1.25 μM) of test compounds (1 μL) were added to a black flat/clear bottom 96-well plate containing 2 nM of human constitutive 20S proteasome ([…]), in 50 mM Tris-HCl at pH 7.8, 100 mM NaCl and allowed to incubate for 15 min at 37° C. Fluorogenic substrates (5 μL) were then added and the enzymatic activity measured at 37° C. on a SpectraMax M5e spectrometer by measuring the change in fluorescence unit per minute for 1 hour at 380-460 nm. The fluorescence units for the vehicle control were set at a 100%, and the ratio of drug-treated sample set to that of vehicle control was used to calculate the fold change in enzymatic activity. The fluorogenic substrates used were one of the following: Suc-LLVY-AMC (CT-L activity, 20 μM), Z-LLE-AMC (Casp-L activity, 20 μM), Boc-LRR-AMC (Trp-L activity, 40 μM) or a combination of the three substrates each at 6.67 μM. Results were analysed and plotted using GraphPad Prism 7.
(§2) Screening of this library of dihydroquinazolines was performed in two stages. In the first stage, each compound was screened at three concentrations (3, 10 and 30 μM) to select lead agents. Secondly, lead agents were further analyzed using full concentration responses (6-point titration ranging from 1.25 μM-40 μM) for each of the three proteolytic activities of the 20S proteasome and a combination thereof. The proteolytic activity of the 20S proteasome can be monitored in vitro by measuring the cleavage of fluorogenic peptide substrates for the different catalytic sites as an increase in 7-amino-4-methycoumarin (AMC) fluorescence overtime. A combination of chymotrypsin-like (CT-L, Suc-LLVY-AMC), tryptic-like (T-L, Boc-LRR-AMC) and caspase-like (Casp-L, Z-LLE-AMC) peptide substrates were used in equal amounts to screen compounds for overall 20S activity.
Pure human 20S proteasome was pre-treated with 3, 10 or 30 μM of one of the analogues or DMSO (vehicle control) for 15 min at 37° C. To each sample was then added a mixture of the three substrates (13.3 μM each). The release of AMC was monitored as fluorescence overtime for 1 h and the resulting 20S activity changes were determined by comparing to the untreated 20S and calculating the fold-increase in activity for each analogue at a given concentration (Table 1, 30 μM).
(§3) After analyzing the results in Table 1, three of the most promising analogues were selected for further studies into their 20S activity. Compounds 10, 2 and 18 were selected to be carried forward based on their fold increase and the highest Max-Fold activities. […] These compounds were then tested to obtain a full concentration—response (FIG. 1) of their activities towards the 20S proteasome using each of the three substrates for the three catalytic sites individually and the combination of the three substrates. This was done to ensure that each of the selected compounds activate the 20S proteasome at all three catalytic sites, which is critical for effective IDP degradation, as these proteins are likely to contain multiple cleavage sites for each.
(§4) Using the data in FIG. 1, the concentration at which 20S activity was doubled (AC200) was calculated for each compound using each substrate and the combination of the three substrates (Table 2).

[1] = test system: T2, human 20S proteasome, caspase-like (Casp-L) site; test: Fluorogenic peptide degradation 20S proteasome activity assay, Z-LLE-AMC (Casp-L activity); settings: Z-LLE-AMC substrate
T2 construct: purchased Boston Biochem, Inc. (Cambridge, MA)
Experimental: as §1, §2, §3, §4

[2] = test system: T3, human 20S proteasome, tryptic-like (T-L) site; test: Fluorogenic peptide degradation 20S proteasome activity assay, Boc-LRR-AMC (T-L activity); settings: Boc-LRR-AMC substrate
T3 construct: purchased Boston Biochem, Inc. (Cambridge, MA)
Experimental: as §1, §2, §3, §4

[3] = test system: T4, human 20S proteasome, chymotrypsin-like (CT-L) site; test: Fluorogenic peptide degradation 20S proteasome activity assay, Suc-LLVY-AMC (CT-L activity); settings: Suc-LLVY-AMC substrate
T4 construct: purchased Boston Biochem, Inc. (Cambridge, MA)
Experimental: as §1, §2, §3, §4

[4] = test system: T5, human 20S proteasome (α-synuclein substrate); test: In vitro purified α-synuclein degradation assay (silver stain); settings: pure human α-synuclein, 4 h at 37° C., silver stain quantified
T5 construct: purchased Boston Biochem, Inc. (Cambridge, MA)
Experimental: Representative silver stain of these alpha-synuclein digestions and quantification of three trials. 20S proteasome subunits were used as a loading control in the quantification (right). […] Error bars denote standard deviation. Ordinary one-way ANOVA statistical analysis was used to determine statistical significance (ns=not significant, *p<0.05, **p<0.01, […], and ****p<0.00001).
In vitro purified α-synuclein degradation assay. Digestion of α-synuclein was carried out in a 50 μL reaction volume made of 50 mM Tris and 100 mM NaCl at pH 7.8; 0.5 μM purified α-synuclein and 6.7 nM purified human 20S proteasome. Briefly, 20S proteasome was diluted to 7.58 nM in the reaction buffer. Test compounds or vehicle (1 μL of 50× stock or DMSO) were added to 44 μL of 7.58 nM 20S and incubated at 37° C. for 20 min. 5 μL of 5 μM α-synuclein substrate was then added to the reaction mixture and incubated at 37° C. for 4 hours. The reactions were quenched with concentrated sodium dodecyl sulfate (SDS) loading buffer. After boiling for 10 min, samples were resolved on a 4-20% Tris-glycine SDS-PAGE gel. The gels were then stained using a Pierce Silver Stain Kit (Thermo Scientific, Rockford IL) and the provided procedure. Silver stained gels were then quantified using ImageJ. […]

Compound: COc1ccc2c(c1)N=C(C1CCCCC1)N(Cc1ccccc1)C2c1ccccc1 (stereo not drawn) [Compound 5, 3-Benzyl-2-cyclohexyl-7-methoxy-4-phenyl-3,4-dihydroquinazoline]
Fold increase over vehicle (30 μM), enhancement of 20S activity (human 20S proteasome): 6.5 fold

Compound: COc1ccc2c(c1)N=C(c1ccccc1)N(c1ccccn1)C2c1ccccc1 (stereo not drawn) [Compound 11, 7-Methoxy-2,4-diphenyl-3-(2-pyridyl)-3,4-dihydroquinazoline]
Fold increase over vehicle (30 μM), enhancement of 20S activity (human 20S proteasome): 6.9 fold

Compound: CCCCCc1ccc2c(c1)N=C(c1ccccc1)N(Cc1ccccc1)C2c1ccccc1 (stereo not drawn) [Compound 4, 3-Benzyl-7-pentyl-2,4-diphenyl-3,4-dihydroquinazoline]
Fold increase over vehicle (30 μM), enhancement of 20S activity (human 20S proteasome): 2.8 fold

Compound: COc1ccc2c(c1)N=C(C(C)C)N(Cc1ccccc1)C2c1ccccc1 (stereo not drawn) [Compound 7]
Fold increase over vehicle (30 μM), enhancement of 20S activity (human 20S proteasome): 2.3 fold

Compound: COc1ccc2c(c1)N=C(C1CC1)N(Cc1ccccc1)C2c1ccccc1 (stereo not drawn) [Compound 6]
Fold increase over vehicle (30 μM), enhancement of 20S activity (human 20S proteasome): 2.7 fold

Compound: COc1ccc2c(c1)N=C(c1ccccc1)N(c1cccnc1)C2c1ccccc1 (stereo not drawn) [Compound 12]
Fold increase over vehicle (30 μM), enhancement of 20S activity (human 20S proteasome): 5.9 fold

Compound: COc1ccc2c(c1)N=C(c1ccccc1)N(Cc1ccccc1)C2c1ccccc1 (stereo not drawn) [Compound 2]
AC200, Casp-L [1]: 5.6 µM
Max Fold, Casp-L [1]: 13.4 fold
AC200, T-L [2]: 5.0 µM
Max Fold, T-L [2]: 11.7 fold
AC200, CT-L [3]: 12.9 µM
Max Fold, CT-L [3]: 5.6 fold
Fold increase over vehicle (30 μM), enhancement of 20S activity (human 20S proteasome): 7.9 fold
concentration at which 20S activity was doubled in the combination (in words) (human 20S proteasome): low μM concentrations
AC200 (concentration at which 20S activity was doubled), Combo (human 20S proteasome): 2.0 µM
Max Fold, Combo (human 20S proteasome): 10.1 fold

Compound: CCCCCC1=Nc2cc(OC)ccc2C(c2ccccc2)N1Cc1ccccc1 (stereo not drawn) [Compound 8]
Fold increase over vehicle (30 μM), enhancement of 20S activity (human 20S proteasome): 2.8 fold

Compound: COc1ccc2c(c1)N=C(C)N(Cc1ccccc1)C2c1ccccc1 (stereo not drawn) [Compound 9]
Fold increase over vehicle (30 μM), enhancement of 20S activity (human 20S proteasome): 1.8 fold

Compound: Cc1ccc2c(c1)N=C(c1ccccc1)N(Cc1ccccc1)C2c1ccccc1 (stereo not drawn) [Compound 3, 3-Benzyl-7-methyl-2,4-diphenyl-3,4-dihydroquinazoline]
Fold increase over vehicle (30 μM), enhancement of 20S activity (human 20S proteasome): 8.1 fold

Compound: COc1ccc2c(c1)N=C(c1ccccc1)N(c1ccccc1)C2c1ccccc1 (stereo not drawn) [Compound 10]
AC200, Casp-L [1]: 5.8 µM
Max Fold, Casp-L [1]: 15.3 fold
AC200, T-L [2]: 2.5 µM
Max Fold, T-L [2]: 15.0 fold
AC200, CT-L [3]: 8.1 µM
Max Fold, CT-L [3]: 6.7 fold
Fold increase over vehicle (30 μM), enhancement of 20S activity (human 20S proteasome): 9.5 fold
concentration at which 20S activity was doubled in the combination (in words) (human 20S proteasome): low μM concentrations
Max Fold, Combo (human 20S proteasome): 11.1 fold

Compound: c1ccc(CN2C(c3ccccc3)=Nc3ccccc3C2c2ccccc2)cc1 (stereo not drawn) [Compound 1, 3-Benzyl-2,4-diphenyl-3,4-dihydroquinazoline]
Fold increase over vehicle (30 μM), enhancement of 20S activity (human 20S proteasome): 4 fold

Second part, led by results:

Fold increase over vehicle (30 μM), enhancement of 20S activity (human 20S proteasome): 2.8 fold
Compound: COc1ccc2c(c1)N=C(c1ccccc1)N(CCc1ccccn1)C2c1ccccc1 (stereo not drawn) [Compound 15, 7-Methoxy-2,4-diphenyl-3-[2-(2-pyridyl)ethyl]-3,4-dihydroquinazoline]

Fold increase over vehicle (30 μM), enhancement of 20S activity (human 20S proteasome): 2 fold
Compound: COc1ccc2c(c1)N=C(c1ccccc1)N(Cc1ccccn1)C2c1ccccc1 (stereo not drawn) [Compound 14, 7-Methoxy-2,4-diphenyl-3-[(2-pyridyl)methyl]-3,4-dihydroquinazoline]

Fold increase over vehicle (30 μM), enhancement of 20S activity (human 20S proteasome): 1.6 fold
Compound: CCCCCCN1C(c2ccccc2)=Nc2cc(OC)ccc2C1c1ccccc1 (stereo not drawn) [Compound 24]

Fold increase over vehicle (30 μM), enhancement of 20S activity (human 20S proteasome): 5.3 fold
Compound: COc1ccc2c(c1)N=C(c1ccccc1)N(c1cccc3cccnc13)C2c1ccccc1 (stereo not drawn) [Compound 13, 7-Methoxy-2,4-diphenyl-3-(8-quinolyl)-3,4-dihydroquinazoline]

Fold increase over vehicle (30 μM), enhancement of 20S activity (human 20S proteasome): 2.7 fold
Compound: COc1ccc2c(c1)N=C(c1ccccc1)N(CC#N)C2c1ccccc1 (stereo not drawn) [Compound 22, (7-Methoxy-2,4-diphenyl-3,4-dihydroquinazolin-3-yl)acetonitrile]

Fold increase over vehicle (30 μM), enhancement of 20S activity (human 20S proteasome): 6.7 fold
Compound: COc1ccc2c(c1)N=C(c1ccccc1)N(C1CCCCC1)C2c1ccccc1 (stereo not drawn) [Compound 16, 3-Cyclohexyl-7-methoxy-2,4-diphenyl-3,4-dihydroquinazoline]

Fold increase over vehicle (30 μM), enhancement of 20S activity (human 20S proteasome): 2.3 fold
Compound: C=CCN1C(c2ccccc2)=Nc2cc(OC)ccc2C1c1ccccc1 (stereo not drawn) [Compound 23]

20S-mediated degradation of α-synuclein (in words) [4]: prevented α-synuclein degradation
Compound: CC(C)C[C@H](NC(=O)[C@H](Cc1ccccc1)NC(=O)c1cnccn1)B(O)O [bortezomib, reference compound]

Max Fold, Casp-L [1]: 0.8 fold
Max Fold, T-L [2]: 1.0 fold
Max Fold, CT-L [3]: 1.1 fold
Fold increase over vehicle (30 μM), enhancement of 20S activity (human 20S proteasome): 1 fold
Max Fold, Combo (human 20S proteasome): 1.4 fold
activity towards the 20S (in words) (human 20S proteasome; screen of Table 1): no discemible activity towards the 20S
Compound: COc1ccc2c(c1)N=C(c1ccccc1)N(C1CCN(C)CC1)C2c1ccccc1 (stereo not drawn) [Compound 17, 7-Methoxy-3-(1-methyl-4-piperidyl)-2,4-diphenyl-3,4-dihydroquinazoline]

Fold increase over vehicle (30 μM), enhancement of 20S activity (human 20S proteasome): 1.2 fold
Compound: COc1ccc2c(c1)N=C(c1ccccc1)N(CC1CCN(C)CC1)C2c1ccccc1 (stereo not drawn) [Compound 19, 7-Methoxy-3-[(1-methyl-4-piperidyl)methyl]-2,4-diphenyl-3,4-dihydroquinazoline]

Fold increase over vehicle (30 μM), enhancement of 20S activity (human 20S proteasome): 1.6 fold
Compound: COc1ccc2c(c1)N=C(c1ccccc1)N(CC1CCOCC1)C2c1ccccc1 (stereo not drawn) [Compound 20, 7-Methoxy-2,4-diphenyl-3-[(tetrahydro-2H-pyran-4-yl)methyl]-3,4-dihydroquinazoline]

AC200, Casp-L [1]: 2.8 µM
Max Fold, Casp-L [1]: 10.6 fold
AC200, T-L [2]: 1.7 µM
Max Fold, T-L [2]: 8.7 fold
AC200, CT-L [3]: 10.5 µM
Max Fold, CT-L [3]: 3.8 fold
Fold increase over vehicle (30 μM), enhancement of 20S activity (human 20S proteasome): 7 fold
concentration at which 20S activity was doubled in the combination (in words) (human 20S proteasome): low μM concentrations
AC200 (concentration at which 20S activity was doubled), Combo (human 20S proteasome): 1.3 µM
Max Fold, Combo (human 20S proteasome): 5.5 fold
Compound: COc1ccc2c(c1)N=C(c1ccccc1)N(C1CCN(Cc3ccccc3)CC1)C2c1ccccc1 (stereo not drawn) [Compound 18]
20S-mediated degradation of α-synuclein (in words) [4]: effectively enhanced the rate of degradation of α-synuclein by the 20S in vitro in a concentration dependent manner

Fold increase over vehicle (30 μM), enhancement of 20S activity (human 20S proteasome): 8.2 fold
Compound: COc1ccc2c(c1)N=C(c1ccccc1)N(CC1CCCCC1)C2c1ccccc1 (stereo not drawn) [Compound 21, 3-(Cyclohexylmethyl)-7-methoxy-2,4-diphenyl-3,4-dihydroquinazoline]
